{"source": "patent US10125183B2", "about": "“Decoy peptides inhibiting binding of AMIGO2 and 3-phosphoinositide-dependent kinase 1” (Curacle Co., Ltd., priority 2015, dated 2018)", "key": {"PDK1 PH domain": {"molecular_target": "T1, PDK1 PH domain (Homo sapiens, UniProt O15530)", "T1 construct": "the purified His-tagged PH domain proteins were incubated with Ni^2+-NTA resins; made in house; host or cells: Escherichia coli BL21", "T1 sequence (O15530 459-550 limits assumed)": "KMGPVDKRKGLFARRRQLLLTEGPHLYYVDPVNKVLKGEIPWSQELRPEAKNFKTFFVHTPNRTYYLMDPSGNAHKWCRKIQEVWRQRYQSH", "assay": "Decoy peptide binding assay (FITC-PTD-A2 with His-tagged PH domain proteins)", "conditions": "FITC-PTD-A2, PH domain proteins 0-60 μg, fluorescence", "protocol": "(§1) For the peptide binding assay, the purified His-tagged PH domain proteins were incubated with Ni^2+-NTA resins for 1 h, incubated in vitro with the FITC-PTD-A2 or Con-pep for 1 h, washed five times, eluted with elution buffer. The FITC level of eluted material was then measured using FLUOstar Omega (BGMLABTECH). For the peptide competition assay, the purified His tagged PH domain proteins were incubated with Ni^2+-NTA resins for 1 h, incubated in vitro with the Cytoplasm Domain protein of AMIGO2 proteins with FITC-PTD-A2 or Con-pep for 1 h, washed five times, eluted with elution buffer, and the fluorescence was measured. The FITC level of eluted material was then measured using FLUOstar Omega."}, "[1]": {"molecular_target": "T2, interaction of the CD of AMIGO2 and PH domain of PDK1 (Homo sapiens, UniProt O15530)", "T2 construct": "the purified His tagged PH domain proteins were incubated with Ni^2+-NTA resins; made in house; host or cells: Escherichia coli BL21", "T2 sequence (O15530 459-550 limits assumed)": "T1 sequence (O15530 459-550 limits assumed)", "assay": "Peptide competition assay (GST-AMIGO2 CD versus peptide on His-tagged PDK1 PH)", "type": "binding", "conditions": "His-tagged PDK1 PH with GST-AMIGO2 CD and peptide, dose dependent", "protocol": "as §1"}, "[2]": {"molecular_target": "T3, association between AMIGO2 and PDK1 (Homo sapiens, UniProt O15530)", "T3 construct": "endogenous in cells; host or cells: endothelial cells (HUVECs)", "T3 sequence (O15530 1-556)": "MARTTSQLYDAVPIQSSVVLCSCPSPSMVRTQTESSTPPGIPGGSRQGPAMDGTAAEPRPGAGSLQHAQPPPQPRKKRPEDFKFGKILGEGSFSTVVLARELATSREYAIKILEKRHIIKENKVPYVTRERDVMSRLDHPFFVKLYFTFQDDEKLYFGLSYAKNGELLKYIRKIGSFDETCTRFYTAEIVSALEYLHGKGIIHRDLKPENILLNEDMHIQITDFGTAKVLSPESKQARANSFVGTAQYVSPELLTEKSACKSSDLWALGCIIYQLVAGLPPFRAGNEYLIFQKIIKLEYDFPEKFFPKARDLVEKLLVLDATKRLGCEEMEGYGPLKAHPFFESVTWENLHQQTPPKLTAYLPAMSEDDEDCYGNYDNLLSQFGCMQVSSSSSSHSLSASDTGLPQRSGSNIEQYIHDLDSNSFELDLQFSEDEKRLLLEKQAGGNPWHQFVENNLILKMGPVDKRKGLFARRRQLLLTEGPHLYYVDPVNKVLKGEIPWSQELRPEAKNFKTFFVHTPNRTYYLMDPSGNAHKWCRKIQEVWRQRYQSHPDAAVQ", "assay": "Immunoprecipitation of AMIGO2 and blotting for PDK1 in peptide-treated HUVECs", "type": "cell-based", "protocol": "For co-immunoprecipitation, HEK293T cells were lysed in 1 mL lysis buffer (20 mmol/L Tris/HCl pH 8.0, 2 mmol/L EDTA, 137 mmol/L NaCl, 1 mmol/L NaVO4, 1 mmol/L PMSF, 10% glycerol, and 1% Triton X-100), and were centrifuged at 14,000×g for 15 min at 4° C., and then the supernatants were immunoprecipitated with antibodies against FLAG (Sigma-Aldrich) and GFP (Santa Cruz Biotechnology) at 4° C. overnight. The immunoprecipitated proteins were obtained by using protein A-agarose beads (Upstate Biotechnology), and detected by SDS-PAGE.\n(§2) The PTD-A2 of FITC-linker-YGRKKRRQRRR-GKRVVFLEPLKDTA (SEQ ID NO: 37) (decoy peptide) and the control peptide (FITC-linker-YGRKKRRQRRR-GRVKTDFLAVPEKL (SEQ ID NO: 38)) (Con-pep) were obtained from Peptron. The experiment was performed using 5 μM concentration in vitro, 4 mg/kg was used for an animal experiment. Peptide treated HUVECs were incubated with serum-free M199 medium at 37° C."}, "HUVECs [3]": {"tested_on": "HUVECs", "assay": "HUVEC cell viability with or without VEGF", "type": "cell-based, human", "conditions": "serum-free starvation with or without VEGF", "protocol": "Endothelial progenitor cells (EPC) were isolated from human umbilical cord blood as previously described (Maeng et al., 2009). Briefly, human umbilical cord blood samples (approximately 50 mL each) were collected from fresh placentas with attached umbilical cords by gravity flow. Human umbilical vein endothelial cells (HUVECs) were isolated from human umbilical cord veins using collagenase as described previously (Marin et al., 2001), and cells from passages three to six were used. HUVECs were cultured on 2% gelatin-coated dishes at 37° C. in a 5% CO2-humidified atmosphere using M199 medium (HyClone) containing 20% fetal bovine serum (FBS), 100 U/mL penicillin, 100 μg/mL streptomycin, 3 ng/mL bFGF (Upstate Biotechnology), and 5 U/mL heparin.\nas §2"}, "PDK1": {"tested_on": "PDK1", "assay": "PDK1 localization in HUVECs after VEGF treatment (immunofluorescence)", "type": "cell-based, human", "conditions": "PTD-A2-treated HUVECs", "protocol": "HUVECs were fixed in 3.7% formaldehyde for 10 min and permeabilized with 0.1% Triton X-100 on the ice. Cells were labeled with anti-FAK antibody (Santa Cruz Biotechnology), anti-PDK1 antibody (Cell Signaling Technology), anti-Akt antibody (Cell Signaling Technology), and anti-AMIGO2 antibody (Abcam) for 2 h at room temperature or overnight at 4° C. Afterwards, the cells were incubated with Alexa 488 and Alexa 546 secondary antibodies (Invitrogen) for 60 min at room temperature, and were then examined under a confocal microscope (LSM 700 META; Carl Zeiss).\nas §2"}, "Akt and PDK1": {"tested_on": "Akt and PDK1", "assay": "VEGF-induced Akt signaling in HUVECs", "type": "cell-based, human", "conditions": "PTD-A2-treated HUVECs", "protocol": "as §2"}, "HUVECs [4]": {"tested_on": "HUVECs", "assay": "Matrigel-induced tube formation assay", "type": "cell-based, human", "conditions": "PTD-A2 treated ECs", "protocol": "The tube formation was assayed as previously described (Choi et al., 2009). Briefly, 250 μL of Matrigel™ (BD Biosciences) was added to a 16-mm diameter tissue culture well on the ice. HUVEC cells then ware placed on that and tube formation was confirmed. The images of the tubes were quantified using ImageJ software (National Institutes of Health)."}, "C57BL/6 mice": {"tested_on": "C57BL/6 mice", "assay": "Matrigel plug angiogenesis assay", "type": "in vivo, mouse", "conditions": "25 μM peptide with VEGF 200 ng, subcutaneous, five days", "protocol": "Angiogenesis was evaluated as previously described (Choi et al., 2009). PBS; Matrigel™ (500 μL; BD Biosciences) mixed with PTD-A2 (25 μM), VEGF (200 ng) and heparin (10 U); and Con-pep (25 μM), VEGF (200 ng) and heparin (10 u) were each subcutaneously injected to Five- to six-week-old C57BL/6 mice. Following injection, the Matrigel™ rapidly formed a single, solid gel plug. After five days, the skin of the mouse was pulled back to expose the Matrigel™ plug, which remained intact. To quantify blood vessel formation, hemoglobin was measured using the Drabkin method and the Drabkin reagent kit 525 (Sigma-Aldrich), and immunohistochemistry was performed using anti-CD31 antibody (BD Biosciences) to identify infiltrating ECs."}, "C57BL/6J mice": {"tested_on": "C57BL/6J mice", "assay": "Mouse model of oxygen-induced retinopathy (OIR)", "type": "in vivo", "conditions": "injected every day for five days from P12", "protocol": "OIR was induced in C57BL/6J mice as previously described (Connor et al., 2009). Briefly, litters of postnatal day seven (P7) C57BL/6J pups were placed in a 75% oxygen atmosphere for five days and then returned to room air at age P12. After returning to room air, the pups were injected with PBS, Con-pep and PTD-A2 every day for five days. Following the injections, crumps of non-vascular regions, vascular regions and blood vessels were detected with CD31 staining."}, "B16F10 melanoma tumors": {"tested_on": "B16F10 melanoma tumors", "assay": "B16F10 melanoma tumor model", "type": "in vivo, mouse", "conditions": "4 mg/kg every other day", "protocol": "B16F10 melanoma cells (2.5×10^5 cells in 100 μl) were subcutaneously injected into the dorsal flank of 6-7 week-old mice and then PTD-Con or PTD-A2 peptide (4 mg/kg every other day) was administered by intratumoral injection after the tumor volume exceeded 100 mm^3. The size was evaluated every day, tumor samples were frozen sectioned, and stained with anti-CD31 antibody to detect the tumor vascular changes, and then examined the apoptosis bio TUNEL staining. For the TUNEL assay, an in situ cell death detection kit (Roche) was used, and sections were analyzed using a confocal microscope (LSM 700 META; Carl Zeiss)."}}, "data": [{"substance": "FITC-linker-YGRKKRRQRRR-GKRVVFLEPLKDTA (SEQ ID NO: 37) [PTD-A2]", "values": [{"measurement": "binding to the PDK1 PH domain", "setting": "PDK1 PH domain", "result": "bound"}, {"measurement": "interaction of the CD of AMIGO2 and PH domain of PDK1", "setting": "[1]", "result": "inhibited"}, {"measurement": "association between AMIGO2 and PDK1 in endothelial cells", "setting": "[2]", "result": "inhibited"}, {"measurement": "cell viability of PTD-A2-treated HUVECs", "setting": "HUVECs [3]", "result": "dose and time-dependent inhibitory effect"}, {"measurement": "PDK1 localization to the plasma membrane following VEGF treatment", "setting": "PDK1", "result": "unable to move to the plasma membrane"}, {"measurement": "activity of both Akt and PDK1", "setting": "Akt and PDK1", "result": "reduced"}, {"measurement": "Matrigel-induced tube formation", "setting": "HUVECs [4]", "result": "inhibited"}, {"measurement": "hemoglobin contents of Matrigel plugs", "setting": "C57BL/6 mice", "result": "lower"}, {"measurement": "neovascularization in Matrigel plugs", "setting": "C57BL/6 mice", "result": "dramatic inhibition"}, {"measurement": "avascular areas of retinas", "setting": "C57BL/6J mice", "result": "increased"}, {"measurement": "retinal hemorrhage", "setting": "C57BL/6J mice", "result": "significantly reduced"}, {"measurement": "retinal vascular areas", "setting": "C57BL/6J mice", "result": "significantly reduced"}, {"measurement": "tuft formation", "setting": "C57BL/6J mice", "result": "significantly reduced"}, {"measurement": "apoptotic regions of tumors (TUNEL assay)", "setting": "B16F10 melanoma tumors; compared to PBS or Con-pep groups", "result": "increased"}, {"measurement": "tumor formation", "setting": "B16F10 melanoma tumors; intratumoral injection", "result": "decreased"}, {"measurement": "tumor angiogenesis", "setting": "B16F10 melanoma tumors; intratumoral, CD31 staining", "result": "decreased"}]}]}
